± gives the expanded uncertainty stated by the source.
Experiment: xn = mol fraction of the nth substance listed
Conditions: Liquid; for electrical conductivity: Radiometer CDM 210 Meterlab conductimeter with a CDC 745-9 cell

CCCC[N+]1(C)CCCC1.O=S(=O)([N-]S(=O)(=O)C(F)(F)F)C(F)(F)F + CN(C)C=O
295.2 K
Conditions	electrical conductivity, 101 kPa [S/m]	viscosity, 101.3 kPa [mPa·s]
x2 = 0	0.28 ± 0.017	80 ± 6.8
x2 = 0.13	–	40.3 ± 8.7
x2 = 0.144	0.387 ± 0.023	–
x2 = 0.24	–	29.6 ± 4
x2 = 0.252	0.495 ± 0.03	–
x2 = 0.33	–	21.7 ± 3
x2 = 0.336	0.612 ± 0.037	–
x2 = 0.403	0.74 ± 0.044	–
x2 = 0.45	–	14.4 ± 2.3
x2 = 0.457	0.78 ± 0.047	–
x2 = 0.519	0.981 ± 0.059	–
x2 = 0.54	–	9.9 ± 1.7
x2 = 0.574	1.1 ± 0.066	–
x2 = 0.637	1.32 ± 0.079	–
x2 = 0.64	–	6.6 ± 1.3
x2 = 0.716	1.6 ± 0.096	–
x2 = 0.74	–	3.7 ± 1.2
x2 = 0.773	1.85 ± 0.11	–
x2 = 0.835	2.1 ± 0.13	–
x2 = 0.871	2.17 ± 0.13	–
x2 = 0.894	2.17 ± 0.13	–
x2 = 0.91	2.12 ± 0.13	–
x2 = 0.931	1.98 ± 0.12	–
x2 = 0.953	1.7 ± 0.1	–
x2 = 0.971	1.31 ± 0.079	–
x2 = 0.981	1.01 ± 0.061	–

Cc1cccnc1 [3-methylpyridine] + CCCC[N+]1(C)CCCC1.O=S(=O)([N-]S(=O)(=O)C(F)(F)F)C(F)(F)F
295.2 K, 101 kPa
Conditions	electrical conductivity [S/m]
x1 = 0.029	0.353 ± 0.06
x1 = 0.057	0.335 ± 0.013
x1 = 0.095	0.367 ± 0.015
x1 = 0.153	0.416 ± 0.017
x1 = 0.194	0.445 ± 0.018
x1 = 0.249	0.467 ± 0.019
x1 = 0.338	0.522 ± 0.021
x1 = 0.387	0.578 ± 0.023
x1 = 0.439	0.606 ± 0.024
x1 = 0.49	0.635 ± 0.025
x1 = 0.54	0.686 ± 0.027
x1 = 0.591	0.726 ± 0.029
x1 = 0.64	0.761 ± 0.03
x1 = 0.691	0.793 ± 0.032
x1 = 0.743	0.814 ± 0.033
x1 = 0.794	0.808 ± 0.032
x1 = 0.845	0.771 ± 0.031
x1 = 0.896	0.665 ± 0.027

CCCC[N+]1(C)CCCC1.O=S(=O)([N-]S(=O)(=O)C(F)(F)F)C(F)(F)F + Cc1cccnc1
Conditions	electrical conductivity [S/m]
295.2 K, 101 kPa, x2 = 0	0.28 ± 0.011

Cc1cccnc1 [3-methylpyridine] + CCCCn1cc[n+](C)c1.F[B-](F)(F)F
295.2 K, 101 kPa
Conditions	electrical conductivity [S/m]
x1 = 0.061	0.44 ± 0.018
x1 = 0.114	0.476 ± 0.019
x1 = 0.162	0.52 ± 0.021
x1 = 0.205	0.555 ± 0.022
x1 = 0.244	0.588 ± 0.024
x1 = 0.279	0.616 ± 0.025
x1 = 0.34	0.674 ± 0.027
x1 = 0.392	0.72 ± 0.029
x1 = 0.474	0.802 ± 0.032
x1 = 0.568	0.845 ± 0.034
x1 = 0.659	0.915 ± 0.037
x1 = 0.721	0.928 ± 0.037
x1 = 0.763	0.936 ± 0.037
x1 = 0.798	0.94 ± 0.038
x1 = 0.838	0.838 ± 0.034
x1 = 0.866	0.747 ± 0.03
x1 = 0.906	0.59 ± 0.024
x1 = 0.928	0.474 ± 0.019

CCCCn1cc[n+](C)c1.F[B-](F)(F)F [1-butyl-3-methylimidazolium tetrafluoroborate] + CN(C)C=O
295.2 K, 101 kPa
Conditions	electrical conductivity [S/m]	viscosity [mPa·s]
x2 = 0	0.375 ± 0.015	122.9 ± 19
x2 = 0.088	0.464 ± 0.019	–
x2 = 0.14	–	65.6 ± 14
x2 = 0.161	0.551 ± 0.022	–
x2 = 0.224	0.629 ± 0.025	–
x2 = 0.23	–	45.4 ± 8.6
x2 = 0.324	0.79 ± 0.032	–
x2 = 0.33	–	26.3 ± 5.7
x2 = 0.366	0.871 ± 0.035	–
x2 = 0.434	1.03 ± 0.041	–
x2 = 0.44	–	16.1 ± 3.1
x2 = 0.49	1.17 ± 0.047	–
x2 = 0.53	–	11.2 ± 1.6
x2 = 0.535	1.3 ± 0.052	–
x2 = 0.606	1.55 ± 0.062	–
x2 = 0.61	–	9.8 ± 1.4
x2 = 0.658	1.72 ± 0.069	–
x2 = 0.728	2.01 ± 0.08	–
x2 = 0.73	–	4.7 ± 1.7
x2 = 0.793	2.31 ± 0.093	–
x2 = 0.828	2.4 ± 0.096	–
x2 = 0.852	2.44 ± 0.097	–
x2 = 0.906	2.44 ± 0.097	–
x2 = 0.957	1.83 ± 0.073	–
x2 = 0.973	1.39 ± 0.056	–
x2 = 0.981	1.13 ± 0.045	–

CCCCn1cc[n+](C)c1.F[B-](F)(F)F [1-butyl-3-methylimidazolium tetrafluoroborate] + Cc1cccnc1
Conditions	electrical conductivity [S/m]
295.2 K, 101 kPa, x2 = 0	0.378 ± 0.015

CCCCCC[N+]1(C)CCCC1.O=S(=O)([N-]S(=O)(=O)C(F)(F)F)C(F)(F)F + CN(C)C=O
Conditions	electrical conductivity, 101 kPa [S/m]	viscosity, 101.3 kPa [mPa·s]
293.2 K, x2 = 0.1	0.155 ± 0.006	–
293.2 K, x2 = 0.5	0.382 ± 0.036	–
293.2 K, x2 = 0.9	1.68 ± 0.068	–
295.2 K, x2 = 0	–	119.8 ± 17
295.2 K, x2 = 0.1	0.17 ± 0.007	–
295.2 K, x2 = 0.104	–	83 ± 7.2
295.2 K, x2 = 0.205	–	56.7 ± 2
295.2 K, x2 = 0.301	–	42.9 ± 1.9
295.2 K, x2 = 0.402	–	28.1 ± 1.3
295.2 K, x2 = 0.5	0.418 ± 0.017	19.6 ± 0.9
295.2 K, x2 = 0.599	–	12 ± 0.5
295.2 K, x2 = 0.7	–	5.5 ± 0.3
295.2 K, x2 = 0.9	1.74 ± 0.07	–
298.2 K, x2 = 0.1	0.191 ± 0.008	–
298.2 K, x2 = 0.5	0.47 ± 0.019	–
298.2 K, x2 = 0.9	1.82 ± 0.073	–
300.2 K, x2 = 0	–	96.8 ± 11
300.2 K, x2 = 0.104	–	67.5 ± 3.7
300.2 K, x2 = 0.205	–	47.2 ± 2.2
300.2 K, x2 = 0.301	–	36.4 ± 1.6
300.2 K, x2 = 0.402	–	24 ± 1.1
300.2 K, x2 = 0.5	–	17 ± 0.7
300.2 K, x2 = 0.599	–	10.5 ± 0.5
300.2 K, x2 = 0.7	–	5.1 ± 0.3
301.2 K, x2 = 0.1	0.211 ± 0.009	–
301.2 K, x2 = 0.5	0.522 ± 0.022	–
301.2 K, x2 = 0.9	1.9 ± 0.076	–
303.2 K, x2 = 0.1	0.224 ± 0.009	–
303.2 K, x2 = 0.5	0.557 ± 0.023	–
303.2 K, x2 = 0.9	1.96 ± 0.079	–
305.2 K, x2 = 0	–	79.6 ± 6.4
305.2 K, x2 = 0.1	0.239 ± 0.01	–
305.2 K, x2 = 0.104	–	55.8 ± 2
305.2 K, x2 = 0.205	–	39.8 ± 1.8
305.2 K, x2 = 0.301	–	30.8 ± 1.4
305.2 K, x2 = 0.402	–	20.9 ± 0.9
305.2 K, x2 = 0.5	0.592 ± 0.024	14.7 ± 0.7
305.2 K, x2 = 0.599	–	9.3 ± 0.4
305.2 K, x2 = 0.7	–	4.7 ± 0.2
305.2 K, x2 = 0.9	2.02 ± 0.081	–
308.2 K, x2 = 0.1	0.26 ± 0.011	–
308.2 K, x2 = 0.5	0.645 ± 0.026	–
308.2 K, x2 = 0.9	2.1 ± 0.084	–
310.2 K, x2 = 0	–	64.8 ± 3.3
310.2 K, x2 = 0.104	–	45.9 ± 2.2
310.2 K, x2 = 0.205	–	33.6 ± 1.5
310.2 K, x2 = 0.301	–	26.3 ± 1.2
310.2 K, x2 = 0.402	–	17.9 ± 0.8
310.2 K, x2 = 0.5	–	13 ± 0.6
310.2 K, x2 = 0.599	–	8.4 ± 0.4
310.2 K, x2 = 0.7	–	4.3 ± 0.2
311.2 K, x2 = 0.1	0.28 ± 0.011	–
311.2 K, x2 = 0.5	0.697 ± 0.029	–
311.2 K, x2 = 0.9	2.19 ± 0.088	–
313.2 K, x2 = 0.1	0.295 ± 0.012	–
313.2 K, x2 = 0.5	0.732 ± 0.029	–
313.2 K, x2 = 0.9	2.24 ± 0.09	–
315.2 K, x2 = 0	–	54.2 ± 1.9
315.2 K, x2 = 0.1	0.31 ± 0.012	–
315.2 K, x2 = 0.104	–	38 ± 1.8
315.2 K, x2 = 0.205	–	28.8 ± 1.3
315.2 K, x2 = 0.301	–	22.6 ± 1
315.2 K, x2 = 0.402	–	15.7 ± 0.7
315.2 K, x2 = 0.5	0.767 ± 0.031	11.4 ± 0.5
315.2 K, x2 = 0.599	–	7.5 ± 0.3
315.2 K, x2 = 0.7	–	3.9 ± 0.2
315.2 K, x2 = 0.9	2.31 ± 0.092	–
318.2 K, x2 = 0.1	0.33 ± 0.013	–
318.2 K, x2 = 0.5	0.819 ± 0.033	–
318.2 K, x2 = 0.9	2.39 ± 0.096	–
320.2 K, x2 = 0	–	45.9 ± 2.2
320.2 K, x2 = 0.104	–	32.4 ± 1.5
320.2 K, x2 = 0.205	–	24.8 ± 1.1
320.2 K, x2 = 0.301	–	19.5 ± 0.9
320.2 K, x2 = 0.402	–	13.9 ± 0.6
320.2 K, x2 = 0.5	–	10 ± 0.4
320.2 K, x2 = 0.599	–	6.8 ± 0.3
320.2 K, x2 = 0.7	–	3.6 ± 0.2
321.2 K, x2 = 0.1	0.351 ± 0.014	–
321.2 K, x2 = 0.5	0.871 ± 0.036	–
321.2 K, x2 = 0.9	2.48 ± 0.099	–
323.2 K, x2 = 0.1	0.365 ± 0.015	–
323.2 K, x2 = 0.5	0.91 ± 0.054	–
323.2 K, x2 = 0.9	2.54 ± 0.1	–
325.2 K, x2 = 0	–	38.9 ± 1.9
325.2 K, x2 = 0.104	–	27.6 ± 1.3
325.2 K, x2 = 0.205	–	21.8 ± 1
325.2 K, x2 = 0.301	–	16.9 ± 0.8
325.2 K, x2 = 0.402	–	12 ± 0.5
325.2 K, x2 = 0.5	–	9.1 ± 0.4
325.2 K, x2 = 0.599	–	6.2 ± 0.3
325.2 K, x2 = 0.7	–	3.4 ± 0.2

— the NIST ThermoML archive (doi:10.1021/je0504515)
